Assay results reported in patent US20260103730A1, “METHOD FOR RELEASING VIRAL VECTORS” (PCI Biotech AS, priority 2022, published 2026).

What was measured:
[1] = test system: HEK293 cells; experiment: LDH release assay (leakage of cytosolic material); type: cell-based; details: 10 min, assessed after 2 hours
Method: HEK293 cells were incubated with either 0.5 μg/mL TPCS2a or 0.5% Tween 20 in serum-free DMEM. Alternatively, HEK293 cells were incubated with 50 μg/mL TPCS2a in 10% serum supplemented DMEM for 10 minutes. The cells were subsequently irradiated with blue light for 5 minutes or received no irradiation. Blue light irradiation/illumination was performed using LumiSource according to the manufacturer's protocol (PCI Biotech). The negative control (Neg. Ctrl) was either serum-free DMEM or 10% Fetal Bovine Serum (FBS) supplemented DMEM containing the TPCS2a solvent to control for the effect of solvents on LDH leakage. Background absorbance values of the LDH assay was assessed using DMEM with increasing concentrations of FBS at 1%, 5% and 10%.
LDH release was performed as a measure of cell lysis and release of cytosolic material using CyQUANT LDH Cytotoxicity Assay (Thermo Fisher Scientific) according to manufacturer's protocol. Cells were seeded in 48 well plates one day prior to treatments in 400 μL. The following day, treatments were given for 10 minutes at 37° C. 5% CO2, prior to 5 minutes illumination. Plates were subsequently incubated for 2 hours in an incubator (37° C. 5% CO2), then centrifuged for 5 minutes at 400×g, after which 50 μL supernatant from each sample was transferred to a 96 well plate for absorbance measurements according to kit instructions. 490 nm absorbance reflects LDH and 680 nm reflects absorbance background from the instrument. 490 nm absorbance minus 680 nm absorbance is directly proportional to the amount of LDH released into the medium.

[2] = test system: HEK293 cells; experiment: DNA leakage by Hoechst 33258 staining and microscopy, photochemical vs detergent lysis; type: cell-based; details: HEK293, TPCS2a 5 μg/mL or Tween 20 0.5%, 10 min, irradiation 5 minutes, 2 hours after
Method: (§1) HEK293 cells were incubated with 5 μg/mL TPCS2a or 0.5% Tween 20 in complete DMEM for 10 minutes followed by irradiation for 5 minutes. Blue light irradiation/illumination was performed using LumiSource according to the manufacturer's protocol (PCI Biotech). A negative control of complete DMEM containing the TPCS2a solvent was used to control for solvent effects on cell morphology and lysis.
Hoechst 33258 stain was added to samples 2 minutes prior to imaging. Hoechst 33258 staining was performed according to the manufacturer's protocol (Thermo Fisher Scientific). The cells were imaged by light (Nomarski) and fluorescence microscopy prior to irradiation and 2 hours after irradiation. Imaging was performed as described in Example 2. Changes to cellular morphology were analysed visually.

[3] = test system: Jurkat cells; experiment: Cell counting (Coulter Counter) as measure of cell growth; type: cell-based; details: higher dose (1 ug/mL) vs 0.1 ug/mL at corresponding irradiation times, 48 hours after irradiation
Method: (§2) Jurkat cells were incubated with 0.1 ug/mL or 1 ug/mL fimaporfin (TPCS2a, tetraphenyl chlorin disulfonate) for 10 minutes in complete RPMI 1640 medium. Following irradiation, the cells were incubated for 48 hours at 37° C. and 5% CO2, after which several analyses of cell health were performed.
(§3) Blue light irradiation/illumination was performed using LumiSource according to the manufacturer's protocol (PCI Biotech)
Cell counting was performed as a measure of cell growth using a Coulter Counter by Beckman Coulter according to the manufacturer's protocol. Counting was performed 48 hours after irradiation.

[4] = test system: Jurkat cells; experiment: Hoechst 33258 entry by flow cytometry as measure of cell death / pore formation; type: cell-based
Method: as §2, §3
Entry of Hoechst 33258 (Thermo Fisher Scientific) into cells was performed as a measure of cell death. When Hoechst 33258 enters cells, it binds to double-stranded DNA generating a strong fluorescent signal. Entry of the stain into the cells requires the presence of pores in the plasma membrane and is a late-stage measure of cell health, i.e. cell death. Hoechst 33258 staining and flow cytometry was performed according to the manufacturer's protocol (Thermo Fisher Scientific).

[5] = test system: Jurkat cells; experiment: MTS assay of metabolic activity/viability after TPCS2a and blue light; type: cell-based; details: 48 hours incubation
Method: as §2, §3
MTS metabolism was performed as a measure of metabolic activity and performed according the manufacturer's protocol (Promega).

[6] = test system: HEK293T cells; experiment: Genomic DNA leakage into supernatant by ddPCR (albumin primers); type: cell-based, human; details: TPCS2a 5 μg/mL 10 min, irradiation 5 minutes, 2 hours incubation
Method: as §1, with “75-80% confluent HEK293T” for “HEK293”, “minutes (where indicated).” for “minutes.”, “cell” for “cell morphology and”
Following irradiation, the cells were incubated for 2 hours at 37° C. and 5% CO2, after which supernatants were collected. Cell debris (if any) was eliminated by centrifugation. Genomic DNA from all samples was quantified by ddPCR (Bio-Rad QX600) using primers targeting human albumin DNA.
Albumin DNA values were normalised to the negative control.

[7] = test system: HEK293 cells; experiment: Cellular morphology after photochemical treatment (Nomarski/fluorescence microscopy); type: cell-based; details: HEK293, 5 μg/mL 10 min
Method: HEK293 cells were incubated with 5 μg/mL TPCS2a complete DMEM for 10 minutes, followed by irradiation with blue light for 5 minutes. Blue light irradiation/illumination was performed using LumiSource according to the manufacturer's protocol (PCI Biotech). Cells were imaged by light (Nomarski) and fluorescence microscopy prior to illumination and 2 hours after illumination. Imaging was performed as described in Example 2.

[8] = test system: HEK293T cells; experiment: Release of AAV2 viral vectors from producer cells (ddPCR of DNase-resistant vg in supernatant); type: cell-based; details: adherent HEK293T, TPCS2a 5 μg/mL 10 min, blue light 5 minutes, supernatant 2 hours later
Method: 75-80% confluent HEK293T cells were triple transfected with Adeno-associated virus serotype 2 (AAV)-encoding plasmids (pHelper, AAV2 RepCap, and pscAAV-GFP plasmids) using polyethylenimine (PEI) in 12 well plates, resulting in AAV2 production. For each transfection, plasmids and PEI were added to complete DMEM to a total volume of 640 μL, followed by vortexing for 10 seconds and 15 minutes incubation at room temperature. Medium was removed from the HEK293T cells in 12 well plates, and replaced by the DMEM-plasmid-PEI mixture. Cells were incubated for three days at 37° C. and 5% CO2. Three days after transfection, cells were subjected to treatments (as described below) for 10 minutes in complete DMEM.
Treatments were: • a) Untransfected cells, no further treatment. • b) Transfected cells. Received photosensitiser solvent but no photosensitiser (to control for solvent effect on cell lysis). • c) Transfected cells. Incubated with 5 μg/mL TPCS2a (Fimaporfin) for 10 minutes. […]
Supernatants were harvested 2 hours later and cell debris (if any) was eliminated by centrifugation. DNase-resistant viral genome (vg) from all samples was quantified by digital droplet PCR amplification (Bio-Rad QX600) of DNase-resistant (i.e. viral capsid-encapsulated) DNA using primers targeting inverted terminal repeats. Viral vector yield was expressed as “vg/mL” (AAV vector genomes per millilitre).

[9] = test system: HEK293T suspension cells; experiment: Photochemical lysis of suspension cells studied by microscopy; type: cell-based; details: 5 μg/mL 10 min + blue light 5 minutes, 2 hours after
Method: HEK293T suspension cells were treated with 5 μg/mL TPCS2a (fimaporfin) or fimaporfin solvent without photosensitiser (“Neg. Ctrl”) in complete DMEM for 10 minutes, followed by blue light illumination for 5 minutes (as described in Example 6). Hoechst 33258 was added to samples 2 minutes prior to imaging. Hoechst 33258 DNA stain is not readily cell penetrable, and therefore stains free DNA or DNA in cells with plasma membrane pores.
Cells were washed in PBS/1% FBS prior to imaging to remove unbound fimaporfin. Cells were imaged by light (Nomarski) microscopy and fimaporfin and Hoechst fluorescence by fluorescence microscopy after 10 minutes (i.e. prior to illumination) and 2 hours after illumination. Imaging was conducted as set out in Example 2.

Substance: tetraphenyl chlorin disulfonate [TPCS2a]
- LDH release ([1]; HEK293, 10% FBS DMEM, TPCS2a 50 μg/mL, blue light 5 minutes): increased significantly
- LDH release ([1]; HEK293, 10% FBS DMEM, TPCS2a 50 μg/mL, no irradiation): comparable levels of LDH release to HEK293 cells treated with a negative control
- LDH release ([1]; HEK293, serum-free DMEM, TPCS2a 0.5 μg/mL or Tween 20 0.5%, blue light 5 minutes): increased significantly
- LDH release ([1]; HEK293, serum-free DMEM, TPCS2a 0.5 μg/mL or Tween 20 0.5%, no irradiation): comparable levels of LDH release to HEK293 cells treated with a negative control
- DNA leakage (Hoechst 33258 microscopy) [2]: DNA stays within the boundaries of the cell corpse
- cell density (cell counting) [3]: reduced cell density
- cell death (Hoechst 33258 staining) ([4]; TPCS2a 0.1 μg/ml 10 min, various irradiation times): some cell death but only at longer irradiation times
- cell death (Hoechst 33258 staining) ([4]; TPCS2a 1 μg/ml 10 min, after 2 minutes of irradiation): significant cell death
- cell viability (MTS absorbance) ([5]; TPCS2a 1 μg/ml 10 min, 4-5 minutes irradiation): total loss of viability
- cell viability (MTS absorbance) ([5]; TPCS2a 0.1 or 1 ug/mL 10 min, blue light 2-5 minutes): reductions in viability
- genomic DNA leakage into supernatant (ddPCR) [6]: does not cause the leakage of genomic DNA
- cellular morphology ([7]; absence of irradiation): do not exhibit changes to their cellular morphology
- cellular morphology ([7]; blue light 5 minutes, 2 hours after illumination): dramatically altered cellular morphology and had shifted to a lytic phenotype
- release of AAV2 viral vectors into supernatant [8]: releases non-enveloped viral vectors from producer cells
- DNA retention (Hoechst 33258 microscopy) [9]: DNA is retained within the boundaries of the lysed cells
- plasma membrane disruption [9]: opens up the plasma membrane
